Measured values published in PubChem BioAssay AID179 (DTP/NCI, 2004).
Calls of active or inactive are those of the source.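 How the source made its calls: active means compounds giving half or more protection of infected cells from virus-caused growth loss, again on retest; inactive means the rest.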

Tested on: CEM cells HIV-1 protection, formazan growth assay
Experiment: NCI AIDS Antiviral Assay
Conditions: for IC50: measured here: growth of uninfected CEM cells
Outline: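 CEM (human) cells, HIV-1 infected vs uninfected, 5-point dosing, formazan growth read-out. Retest threshold 50% protection.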

Structure (SMILES) | outcome | EC50 | IC50
Cc1cc(/C=C\c2ccnc3ccccc23)ccc1N(C)C | inactive |  | 
NCCNc1ccc([N+](=O)[O-])c2c(=O)c3ccccc3[nH]c12 | inactive |  | 
CC1CCCC(C(=O)/C(=C/c2cccc(Cl)c2)C(=O)C(=O)O)C1 (centres undefined) |  | > 15.5 µM | > 15.5 µM
COc1ccc(/C=N/N2C(=O)c3c(N)c(C#N)c(-c4ccccc4)c(-c4ccccc4)c3C2=O)cc1 |  | > 100 µM | > 100 µM
O=CC[C@]12CC(=O)OC(C=CC13OCCO3)C2 |  | > 200 µM | > 200 µM
CCCOC(=O)C(C)(C)C(OP(OCCC)OCCC)=C(C)C |  | > 200 µM | > 200 µM
CC1(C)C2CC(=O)C1(C)C(OCc1ccccc1)C2Br (centres undefined) |  | > 200 µM | > 100 µM
CCCOCN1COCN=C1NC#N |  | > 447 µM | 417 µM
[N-]=[N+]=NC1C(O)C(O)C(O)C(O)C1O (centres undefined) |  | > 603 µM | > 603 µM
CCCC1N=C(c2ccccc2)C2C(c3ccc([N+](=O)[O-])cc3)N12 (centres undefined) |  | > 200 µM | 148 µM
O=c1[nH]cnc2c1nnn2CCCn1nnc2c(=O)[nH]cnc21 |  | > 200 µM | > 200 µM
CC1(C)C2CC(=O)C1(C)C(O)C2Br (centres undefined) | inactive |  | 
O=c1c2ccccc2n2nnc3cccc1c32 |  | > 23.4 µM | > 23.4 µM
CCn1c(O)c(C=Nc2ccccc2)s/c1=N/Nc1nc(-c2ccccc2)cs1 |  | > 200 µM | 24.5 µM
O=C1CCC2(O1)c1ccc(O)cc1Oc1cc(O)ccc12 |  | > 200 µM | > 200 µM
CN(C)c1ccc(C=Nc2ccc(Oc3ccc(Cl)cc3)c(Cl)c2)cc1 |  | > 200 µM | 28.2 µM

Structure (SMILES) | outcome | EC50 | IC50
Cc1csc2c(=O)n(COCc3ccccc3)c(=O)[nH]c12 |  | > 200 µM | > 200 µM
O=C(Cc1nc2ccccc2o1)C(=O)Nc1ccccc1C(F)(F)F | inactive |  | 
CN1N=Nc2ccccc2C1(O)c1ccc(F)cc1 (centres undefined) |  | > 200 µM | > 200 µM
Cc1ccc(C)c(N2C(=O)C(=O)C(c3nc4ccccc4s3)C(=O)C2=O)c1 | inactive |  | 
CC1=NN(c2ccccc2)C(=O)C1N=Nc1ccc(S(=O)(=O)Nc2nccc(C)n2)cc1 (centres undefined) | inactive |  | 
CC(=O)OCC(OC(C)=O)C(OC(C)=O)C(C=NN(C(C)=O)S(=O)(=O)c1ccc(/C=C2\NC(=O)NC2=O)cc1)OC(C)=O (centres undefined) |  | > 200 µM | 97.7 µM
O=C(NN1CCCCCC1)NS(=O)(=O)c1ccc(Cl)cc1 |  | > 200 µM | > 200 µM
CCOP(=O)(OCC)/C(C)=N/O |  | > 1290 µM | > 1290 µM
CC(C)OC1NC(=O)Oc2ccccc21 (centres undefined) |  | > 200 µM | 132 µM
O=S(=O)(O)c1ccc(N=Nc2ccc(N=Nc3c(S(=O)(=O)O)cc4cc(S(=O)(=O)O)cc(O)c4c3O)cc2)cc1 | inactive |  | 
Cc1ccc(C)c(COCCOCn2cc(N3CCOCC3)c(=O)[nH]c2=O)c1 |  | > 200 µM | > 200 µM
CCOC(=O)c1c2c(n3ccc(C)cc13)C(=O)C(c1ccc([N+](=O)[O-])cc1)S2 (centres undefined) | inactive |  | 
Clc1cc(Cl)cc(C2ON=C(c3ccccc3)N2C23CC4CC(CC(C4)C2)C3)c1 (centres undefined) |  | > 200 µM | > 200 µM
CCc1ccc(/C(=N\NC(N)=S)C2CC2)cc1 |  | > 200 µM | 110 µM
O=C1NC(=S)S/C1=C/c1ccco1 |  | > 123 µM | 72.4 µM
